Measurements reported in patent US20240150809A1, “Method of Evaluating the Biofilm Detachment Efficacy of Compositions” (Colgate-Palmolive Company, priority 2021, published 2024).

Tested on: S. gordonii biofilms
Experiment: adapted spinning-disc rheometry analysis of biofilm detachment
Type: cell-based, Streptococcus gordonii
Settings: for area under the curve (AUC) of the torque-angular velocity curves: whole analyzed range; for biofilm momentum coefficient (CB): 200-300 rad·s^−1, vs untreated
Procedure: Spinning-disc rheology was adapted to analyze biofilm detachment from surfaces. S. gordonii biofilms were grown on 3D printed coupons for 5 days. The model for the coupons was designed in SolidWorks (Dassault Systèmes). Coupons were 3D printed using a Prime 30 PolyJet 3D printer (Objet, Stratasys) using RGD720 photopolymer for the printing material (Stratasys). The coupon was printed at a resolution of 0.0008 inches. The coupon surface was sanded used P300 sandpaper to create a rougher surface for bacteria to attach. Prior to inoculating, coupons were sterilized in 70% ethanol.
S. gordonii wild type strain DL1 was used in this study. Overnight cultures were prepared by inoculating 10 mL of brain heart infusion broth (Oxoid; BHI) with a colony of S. gordonii and incubated statically overnight at 37° C. with 5% CO2. Sterile 40 mm coupons were placed in a Petri dish containing 40 mL BHI, supplemented with 0.5% sucrose. Coupons were inoculated with 400 μL of overnight culture. Biofilms were incubated in a humidified chamber at 37° C. with 5% CO2, on an orbital shaker at 150 rpm. Every 24 h the media was replenished. […]
Biofilms were analyzed on a Discovery Hybrid Rheometer-2 (HD-2) (TA Instruments). A 15×15 cm square clear acrylic container filled with 2.8 L reverse osmosis water was transferred onto the Peltier plate. Biofilm-coated coupons were immersed and attached to the rheometer shaft using a custom-made adapter probe. The gap distance between the bottom of the container and the coupon was set to 3.5 cm (FIG. 1). Immersed coupons were spun at an angular velocity (ω) range of 0.1-300 rad·s^−1, incrementing the speed over 360 seconds, and the resulting torque (T), a measurement of resistance to rotation, was measured across this velocity range.
Data was collected using TRIOS v5 software (TA instruments), with raw data exported in excel. Data was transformed, and calculations performed in excel. Data was visualized and statistical analysis performed in GraphPad Prism v8 (GraphPad Software). All statistical comparisons were performed using a Student's t-test, with p<0.05 indicating significance.
To more easily observe the changes in torque associated with biofilm detachment, the torque-angular velocity data was linearized and transformed. The data was linearized by taking the square root of the torque. The running slope of 5 data points of the linearized data was determined. […] Therefore, final transformed data is presented as the running slope of the linearized data against angular velocity, starting at 20 rad·s^−1.
Five day S. gordonii biofilms were treated with either PBS (untreated control) or 4% arginine for 2 min. […] After treatment, Biofilms were analyzed on a Discovery Hybrid Rheometer-2 (HD-2) (TA Instruments) as described above. Four biological replicates were analyzed, each with 2-4 technical replicates (total N=11).
To quantify the mechanical differences between arginine treated and untreated S. gordonii biofilms, the biofilm momentum coefficient (CB) across the turbulent regimes of 200-300 rad·s^−1 was determined according to equation 1: […]
To quantify these differences, the angular velocity where the first reduction in torque occurred was converted to the shear stress acting on the outer edge of the coupon, according to equation 3.
Next, the biofilm disrupting effect of arginine was compared with that of glycine and lysine by the spinning-disc rheometry assay to determine if biofilm disrupting effect is a general property of amino acids, or specific to arginine.

[1] = Seven day S. gordonii biofilms, 4% arginine or 0.23M glycine or lysine for 2 min, equation 3, vs untreated
[2] = Seven day S. gordonii biofilms, 4% arginine or 0.23M glycine or lysine for 2 min, vs untreated
[3] = 5 day S. gordonii biofilms, 4% arginine for 2 min, vs PBS untreated control
[4] = 5 day S. gordonii biofilms, 4% arginine for 2 min, vs untreated

Row | Compound | shear stress at the first reduction in torque (detachment shear stress) [1] | area under the curve (AUC) of the torque-angular velocity curves [2] | torque across angular velocity range (5 day S. gordonii biofilms, 4% arginine for 2 min, 0.1-300 rad·s^−1, vs untreated) | biofilm momentum coefficient (CB) (5 day S. gordonii biofilms, 4% arginine for 2 min) | shear stress at the first reduction in torque (initiation of detachment) (5 day S. gordonii biofilms, 4% arginine for 2 min, equation 3, vs untreated) | angular velocity at which changes in torque associated with biofilm detachment events occurred (5 day S. gordonii biofilms, 4% arginine for 2 min, transformed analysis, vs untreated) | amount of remaining biofilm attached to the coupon after rheometry analysis [3] | biofilm morphology (macroscopic) [3] | changes in torque in transformed data (running slope of torque^1/2 vs angular velocity) [4] | area under the curve (AUC) of the torque-angular velocity curves [4] | biofilm momentum coefficient (CB) (Seven day S. gordonii biofilms, 4% arginine or 0.23M glycine or lysine for 2 min) | torque (torque-displacement profile) [2]
1 | NCC(=O)O [glycine, reference compound] | no significant difference | no significant differences | – | – | – | – | – | – | – | – | – | –
2 | N=C(N)NCCC[C@H](N)C(=O)O [arginine] | significantly lower shear stresses | significantly reduced AUC | reduced torque | no statistical difference | significantly lower shear stresses | lower angular velocity ranges | did not appear to affect | did not appear to affect | greater changes in torque | significantly reduced AUC | significantly lower | reduced torque
3 | NCCCC[C@H](N)C(=O)O [lysine, reference compound] | no significant difference | no significant differences | – | – | – | – | – | – | – | – | – | –
